Measurements published in patent US10213415B2, “Compounds as opioid receptor modulators” (JANSSEN PHARMACEUTICA NV, priority 2004, dated 2019).
Several values for one entry are separate records, joined by “and”; a condition that tells them apart may be missing. Equal entries are not always repeated. Where two headings read alike, the source gives them in different places.

Tests used:
human mu opioid receptor = target: T1, human mu opioid receptor (Homo sapiens, UniProt P35372); experiment: Human Mu Opioid Receptor Binding Assay (CHO membranes, 3H-Damgo); conditions: read-out: hKi μ
T1 construct: purchased Perkin Elmer RBHOMM400UA; host or cells: Chinese Hamster Ovary cells (recombinant expression)
T1 sequence (P35372 whole entry): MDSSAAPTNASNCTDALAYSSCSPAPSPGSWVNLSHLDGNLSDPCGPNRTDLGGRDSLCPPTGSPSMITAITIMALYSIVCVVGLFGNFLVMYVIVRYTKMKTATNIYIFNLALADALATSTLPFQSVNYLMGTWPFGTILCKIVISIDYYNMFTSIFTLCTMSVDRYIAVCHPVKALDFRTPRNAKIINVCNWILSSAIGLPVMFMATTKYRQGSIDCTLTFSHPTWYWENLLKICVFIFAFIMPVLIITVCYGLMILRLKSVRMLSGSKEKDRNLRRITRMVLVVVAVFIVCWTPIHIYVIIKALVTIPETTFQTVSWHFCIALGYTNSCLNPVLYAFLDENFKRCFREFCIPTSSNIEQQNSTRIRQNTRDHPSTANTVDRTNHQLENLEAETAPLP
Procedure: Membranes from Chinese Hamster Ovary cells expressing the human […] opioid receptor (Perkin Elmer #RBHOMM400UA) are homogenized in assay buffer (50 mM Tris, pH 7.5 with 5 mM MgCl2) using a glass tissue grinder, Teflon pestle and a Steadfast Stirrer (Fisher Scientific). The concentration of membranes is adjusted to 300 μg/mL in assay buffer and 100 μL is dispensed into each well of the assay plate, a 96 well round bottom polypropylene plate. Compounds to be tested are solubilized in DMSO (Pierce), 10 mM, then diluted in assay buffer to 6× the desired final concentration. The ligand, ^3H-Damgo (Perkin Elmer #NET-902) is also diluted in assay buffer to 3.6 nM. In a second 96 well round bottom polypropylene plate, known as the premix plate, 60 μL of the 6× compound is combined with 60 μL of 3.6 nM ^3H-Damgo. From this premix plate 50 μL is transferred to the assay plate containing the membranes, in duplicate. The assay plate is incubated for 2 h at room temperature. A GF/C 96 well filter plate (Perkin Elmer #6005174) is pretreated with 0.3% polyethylenimine for 30 min. The contents of the assay plate are filtered through the filter plate using a Packard Filtermate Harvester, and washed 3 times with 0.9% saline that is 4° C. The filter plate is dried, the underside sealed, and 30 μL Microscint20 (Packard #6013621) added to each well. A Topcount-NXT Microplate Scintillation Counter (Packard) is used to measure emitted energies in the range of 2.9 to 35 KeV. […] Nonspecific binding is determined in the presence of 1 μM unlabelled Damgo (Tocris #1171).

[1] = target: T2, human delta subtype 2 opioid receptor (Homo sapiens, UniProt P41143); experiment: Human Delta Opioid Receptor Binding Assay (CHO membranes, 3H-Naltrindole); conditions: read-out: hKi δ
T2 construct: purchased Perkin Elmer RBHODM400UA; host or cells: Chinese Hamster Ovary cells (recombinant expression)
T2 sequence (P41143 whole entry): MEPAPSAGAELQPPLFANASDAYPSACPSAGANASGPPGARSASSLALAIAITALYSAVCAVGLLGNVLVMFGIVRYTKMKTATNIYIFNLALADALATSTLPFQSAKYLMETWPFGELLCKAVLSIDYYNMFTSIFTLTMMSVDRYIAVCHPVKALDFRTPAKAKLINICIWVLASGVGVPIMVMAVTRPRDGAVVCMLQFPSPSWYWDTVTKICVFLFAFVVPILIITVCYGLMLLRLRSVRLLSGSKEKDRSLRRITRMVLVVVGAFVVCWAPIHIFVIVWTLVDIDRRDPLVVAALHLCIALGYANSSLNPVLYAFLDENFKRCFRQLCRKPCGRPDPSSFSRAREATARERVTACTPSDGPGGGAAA
Procedure: This assay is designed to test the ability of a compound to interfere with the binding of tritiated Naltrindole to the human delta subtype 2 opioid receptor. Membranes from Chinese Hamster Ovary cells expressing the human delta subtype 2 opioid receptor (Perkin Elmer #RBHODM400UA) are homogenized in assay buffer (50 mM Tris, pH 7.5 with 5 mM MgCl2) using a glass tissue grinder, Teflon pestle and a Steadfast Stirrer (Fisher Scientific). The concentration of membranes is adjusted to 100 μg/mL in assay buffer and 100 μL is dispensed into each well of the assay plate, a 96 well round bottom polypropylene plate. Compounds to be tested are solubilized in DMSO (Pierce), 10 mM, then diluted in assay buffer to 6× the desired final concentration. The ligand, ^3H-Naltrindole (Perkin Elmer #NET-1065) is also diluted in assay buffer to 6 nM. In a second 96 well round bottom polypropylene plate, known as the premix plate, 60 μL of the 6× compound is combined with 60 μL of 6 nM ^3H-Naltrindole. From this premix plate 50 μL is transferred to the assay plate containing the membranes, in duplicate. The assay plate is incubated for 30 min at room temperature. A GF/C 96 well filter plate (Perkin Elmer #6005174) is pretreated with 0.3% polyethylenimine for 30 min. The contents of the assay plate are filtered through the filter plate using a Packard Filtermate Harvester, and washed 3 times with 0.9% saline that is 4° C. The filter plate is dried, the underside sealed, and 30 μL Microscint20 (Packard #6013621) added to each well. A Topcount-NXT Microplate Scintillation Counter (Packard) is used to measure emitted energies in the range of 2.9 to 35 KeV. Results are compared to maximum binding, wells receiving no inhibitors. Nonspecific binding is determined in the presence of 1 μM unlabelled Naltrindole (Sigma #N115).

[2] = test system: novel environment-stressed mice; experiment: In Vivo Assay-Stress-Induced Fecal Output (Fecal Output for 1 hr); parameters: species or system mouse; conditions: 30 mg/kg oral, 1 hr; for Fecal Output (# pellets) cpd: novel environment-stressed mice; for response vs control in vivo at 30 mg/kg: Mus musculus, po, 1 h
Description: This assay evaluates the fecal output in novel environment-stressed mice to that of acclimated controls.
Methods: Adult, male, Crl:CD-1(ICR) mice, weighing ˜30-35 g were used in these studies, with a minimum of 10 mice per dose group. One group of mice was assigned as acclimated, or “non-stressed” controls. These control mice were transported from colony housing, where they were housed 3/cage in polycarbonate cages with access to food and water ad lib. to the procedure room. The mice were removed from their home cages and individually housed in 20 cm wide×20 cm deep×15 cm tall cages, equipped with a wire mesh bottom where they remained for a 16-18 hr period of acclimation to their novel environment. Mice were allowed access to food and water ad lib. during acclimation. The other groups of mice were assigned as non-acclimated, or “stressed” treatment groups. Each mouse in each group was weighed and vehicle, or test compound, was intragastrically administered by oral intubation in 0.5% methylcellulose. Mice were allowed access to water only ad lib. during the test period. After compound administrations, acclimated (control) as well as non-acclimated (stressed) mice were individually housed in a 20 cm wide×20 cm deep×15 cm tall cage, with a wire mesh bottom. An absorbant cardboard is placed beneath the cages. The number of fecal pellets excreted by each mouse was determined at hourly intervals following placement of the mice in the individual cages. Raw Data=# of fecal pellets/mouse/hr. […]

[3] = relative to acclimated control, read-out: Fecal Output cpd % control
[4] = relative to novel environment stress (NES) vehicle group, read-out: Fecal Output cpd % NES

Row | Compound | Ki (human mu opioid receptor) | Ki [1] | Fecal Output (# pellets) cpd [2] | response vs control in vivo at 30 mg/kg [2, 3] | response vs control in vivo at 30 mg/kg [2, 4] | Fecal Output cpd % control ([2]; relative to acclimated control) | Fecal Output cpd % NES ([2]; relative to novel environment stress (NES) vehicle group)
1 | Cc1cc(C(N)=O)cc(C)c1C[C@H](N)C(=O)N(Cc1nc(-c2ccccc2)c[nH]1)[C@H](C)c1ccccc1 [Cpd 94] | 4.1 nM | 403 nM | 9.4 pellets | 348% | 103% |  | 
2 | Cc1cc(O)cc(C)c1C[C@H](N)C(=O)N(Cc1ccc(C(=O)O)cc1)[C@@H](C)c1nc(-c2ccccc2)c[nH]1 [Cpd 80] | 1.09 nM | 0.95 nM |  |  | 75.3% |  | 
3 | Cc1cc(O)cc(C)c1C[C@H](N)C(=O)N(Cc1cccc(C#N)c1)[C@@H](C)c1nc(-c2ccccc2)c[nH]1 [Cpd 91] | 4.8 nM | 15 nM | 8.9 pellets | 287% | 69% |  | 
4 | CC(=O)Nc1ccc(CN(C(=O)[C@@H](N)Cc2c(C)cc(O)cc2C)[C@@H](C)c2nc(-c3ccccc3)c[nH]2)cc1 [Cpd 79] | 1.7 nM | 11.5 nM | 7.1 pellets | 197% | 97.3% |  | 
5 | Cc1cc(O)cc(C)c1C[C@H](N)C(=O)N(C(C)C)[C@@H](CO)c1nc(-c2ccccc2)c[nH]1 [Cpd 118] | 1.04 nM | 316 nM and 212 nM | 7.2 pellets | 134% | 60.2% |  | 
6 | Cc1cc(C(N)=O)cc(C)c1C[C@H](N)C(=O)N(C(C)c1ccccc1)[C@@H](C)c1nc(-c2ccccc2)c[nH]1 (single isomer, unassigned) [Cpd 112] | 9.5 nM | 135 nM | 7.2 pellets |  |  | 100.0% | 69.9%
7 | Cc1cc(O)cc(C)c1C[C@H](N)C(=O)N(Cc1ccc(Cl)c(Cl)c1)Cc1nc(-c2ccccc2)c[nH]1 [Cpd 87] | 12.6 nM | 38.9 nM | 10.3 pellets | 141% | 79.8% |  | 
8 | COC(=O)c1ccc(CN(C(=O)[C@@H](N)Cc2c(C)cc(O)cc2C)[C@@H](C)c2nc(-c3ccccc3)c[nH]2)cc1 [Cpd 89] | 9.2 nM | 19.3 nM | 6.4 pellets | 128% | 55.2% |  | 
9 | Cc1cc(O)cc(C)c1CC(N)C(=O)N(Cc1ccccc1)C(C)c1nc(-c2ccc(F)cc2)c[nH]1 (stereo not drawn) [Cpd 83] | 4.67 nM | 48 nM |  |  |  |  | 
10 | Cc1[nH]c(CN(C(=O)[C@@H](N)Cc2ccc(O)cc2)C(C)C)nc1-c1ccccc1 [Cpd 154] | 1 nM | > 10000 nM |  |  |  |  | 
11 | Cc1cc(O)cc(C)c1C[C@H](N)C(=O)N[C@@H](CO)c1nc(-c2ccccc2)c[nH]1 [Cpd 119] | 185 nM | > 10000 nM |  |  |  |  | 
12 | COc1ccc(-c2nc(CN(C(=O)[C@@H](N)Cc3c(C)cc(O)cc3C)C(C)C)[nH]c2C)cc1 [Cpd 125] | 8.6 nM | 237 nM |  |  |  |  | 
13 | Cc1cc(O)cc(C)c1C[C@H](N)C(=O)N(CC1CCCCC1)[C@@H](C)c1nc(-c2ccccc2)c[nH]1 [Cpd 56] | 65.3 nM | 225 nM |  |  |  |  | 
14 | Cc1cc(O)cc(C)c1C[C@H](N)C(=O)N(Cc1cccc(Br)c1)[C@@H](C)c1nc(-c2ccccc2)c[nH]1 [Cpd 101] | 24 nM | 47 nM |  |  |  |  | 
15 | Cc1cc(O)cc(C)c1C[C@H](N)C(=O)N(Cc1ccco1)[C@@H](C)c1nc(-c2ccccc2)c[nH]1 [Cpd 54] | 1.1 nM | 172 nM |  |  |  |  | 
16 | Cc1cc(O)cc(C)c1C[C@H](N)C(=O)N(C(C)C)[C@@H](Cc1ccccc1)c1nc(-c2ccccc2)c[nH]1 [Cpd 159] | 8.6 nM | 400 nM |  |  |  |  | 

Row | Compound | Ki (human mu opioid receptor) | Ki [1] | Fecal Output (# pellets) cpd [2] | response vs control in vivo at 30 mg/kg [2, 3] | response vs control in vivo at 30 mg/kg [2, 4] | Fecal Output cpd % control ([2]; relative to acclimated control) | Fecal Output cpd % NES ([2]; relative to novel environment stress (NES) vehicle group)
17 | Cc1cc(O)cc(C)c1C[C@H](N)C(=O)N(C(C)C)[C@H](CO)c1nc(-c2ccccc2)c[nH]1 [Cpd 63] | 58 nM | 473 nM |  |  |  |  | 
18 | Cc1cc(O)cc(C)c1C[C@H](N)C(=O)N(Cc1ccccc1)[C@@H](CC(C)C)c1nc(-c2ccccc2)c[nH]1 [Cpd 104] | 100 nM | 484 nM |  |  |  |  | 
19 | Cc1cc(O)cc(C)c1C[C@H](N)C(=O)N(CC1CCN(C(=O)OCc2ccccc2)CC1)[C@@H](C)c1nc(-c2ccccc2)c[nH]1 [Cpd 53] | 13.1 nM | 96 nM |  |  |  |  | 
20 | Cc1cc(C(N)=O)cc(C)c1C[C@H](N)C(=O)N(CCCc1ccccc1)[C@@H](C)c1nc(-c2ccccc2)c[nH]1 [Cpd 108] | 23.5 nM | 43.3 nM |  |  |  |  | 
21 | CC(C)[C@@H](c1nc(-c2ccccc2)c[nH]1)N(C(=O)[C@@H](N)Cc1cccc(C#N)c1)C(C)C [Cpd 160] | > 1000 nM | > 10000 nM |  |  |  |  | 
22 | Cc1cc(O)cc(C)c1C[C@H](N)C(=O)N(Cc1nc(-c2cccc(F)c2)c(C)[nH]1)C(C)C [Cpd 116] | 0.54 nM | 30.3 nM |  |  |  |  | 
23 | Cc1cc(O)cc(C)c1C[C@H](N)C(=O)N(Cc1ccc(O)cc1)[C@@H](C)c1nc(-c2ccccc2)c[nH]1 [Cpd 81] | 1.7 nM | 15.7 nM |  |  |  |  | 
24 | Cc1cc(C(N)=O)cc(C)c1C[C@H](N)C(=O)N(C1CCCCC1)[C@@H](C)c1nc(-c2ccccc2)c[nH]1 [Cpd 127] | 47 nM | 710 nM |  |  |  |  | 
25 | Cc1cc(O)cc(C)c1C[C@H](N)C(=O)N(Cc1ccccc1)[C@H](c1nc(-c2ccccc2)c[nH]1)C(C)C [Cpd 106] | 150 nM | 279 nM |  |  |  |  | 
26 | Cc1cc(O)cc(C)c1C[C@H](N)C(=O)N(Cc1nc(-c2ccc(-c3ccccc3)cc2)c(C)[nH]1)C(C)C [Cpd 115] | 68 nM | 321 nM |  |  |  |  | 
27 | Cc1cc(O)cc(C)c1C[C@H](N)C(=O)N(Cc1nc(-c2cccc(Cl)c2)c(C)[nH]1)C(C)C [Cpd 70] | 2.6 nM | 85 nM |  |  |  |  | 
28 | Cc1cc(O)cc(C)c1C[C@H](N)C(=O)N(C(C)C)[C@H](c1nc(-c2ccccc2)c[nH]1)C(C)C [Cpd 162] | 7.6 nM | 173 nM |  |  |  |  | 
29 | Cc1cc(O)cc(C)c1C[C@H](N)C(=O)N(Cc1nc(-c2cc(F)cc(F)c2)c(C)[nH]1)C(C)C [Cpd 126] | 7.8 nM | 164 nM |  |  |  |  | 
30 | Cc1cc(O)cc(C)c1C[C@H](N)C(=O)N(Cc1nc(-c2cccc(O)c2)c(C)[nH]1)C(C)C [Cpd 68] | 0.6 nM | 59 nM |  |  |  |  | 
31 | Cc1cc(C(N)=O)cc(C)c1C[C@H](N)C(=O)N(CCc1ccccc1)[C@H](C)c1nc(-c2ccccc2)c[nH]1 [Cpd 110] | 191 nM | 1400 nM |  |  |  |  | 
